In PubChem BioAssay (NCI):
Where “and” joins values, the source holds several entries; their conditions need not be identical. Identical values can stand only once.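 Five concentrations, 48 hours, 96-well plates. GI50 is the concentration that inhibits growth by half. The concentration for full growth arrest is given as TGI.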

Experiments:
Assay in all cases: DTP human tumour cell line panel, 48 h
[1] = tested on: OVCAR-4 ovarian
[2] = tested on: NCI/ADR-RES ovarian
[3] = tested on: MOLT-4 leukemia
[4] = tested on: HT29 colon
[5] = tested on: IGROV1 ovarian
[6] = tested on: SR leukemia
[7] = tested on: K-562 leukemia
[8] = tested on: CCRF-CEM leukemia
[9] = tested on: EKVX NSCLC
[10] = tested on: 786-0 renal

O=c1ccn(C2CC(O)C(CO)O2)c(=O)[nH]1 (centres undefined) was tested, and the GI50 [1] was > 5000 µM, the TGI [1] was > 5000 µM and the GI50 [2] was > 5000 µM. The TGI [2] was > 5000 µM, the GI50 [3] was 548 µM and 227 µM and the TGI [3] was > 5000 µM. The GI50 [4] was > 5000 µM, the TGI [4] was > 5000 µM and the GI50 [5] was > 5000 µM. The TGI [5] was > 5000 µM, the GI50 [6] was > 5000 µM and the TGI [6] was > 5000 µM. For the same compound, the GI50 [7] was > 5000 µM, the TGI [7] was > 5000 µM and the GI50 [8] was 95.8 µM and 110 µM. The TGI [8] was 838 µM, the GI50 [9] was > 5000 µM and the TGI [9] was > 5000 µM. The GI50 [10] was > 5000 µM and the TGI [10] was > 5000 µM.

For O=CN/C=C/c1cccc(O)c1, the TGI [1] was > 93.8 µM, the TGI [2] was > 100 µM and the TGI [3] was > 100 µM. The TGI [4] was 74.8 µM, the TGI [5] was > 88.2 µM and the TGI [6] was > 75.2 µM. The TGI [7] was > 100 µM, the TGI [8] was > 100 µM and the TGI [9] was > 96.6 µM. For the same compound, the TGI [10] was 83.7 µM.

In the case of COc1c(O)cc2oc(-c3ccc(O)cc3)cc(=O)c2c1O, the TGI [1] is reported as > 100 µM, the TGI [2] is reported as > 100 µM and the TGI [3] is reported as 83.2 µM. The TGI [4] was > 100 µM, the TGI [5] was 76.9 µM and the TGI [6] was 63.6 µM. The TGI [7] was > 100 µM, the TGI [8] was 65.1 µM and the TGI [9] was 98.1 µM. For the same compound, the TGI [10] was > 100 µM.

Nc1nc(N)c2nc(CNc3ccc(C(=O)NC(CC(=O)O)C(=O)O)cc3)cnc2n1 (centres undefined) was tested, and the GI50 [1] was > 100 µM, the TGI [1] was > 100 µM and the GI50 [2] was 0.638 µM. For the same compound, the TGI [2] was > 100 µM, the GI50 [3] was 0.903 µM and the TGI [3] was > 100 µM. The GI50 [4] was 0.542 µM, the TGI [4] was > 100 µM and the GI50 [5] was 0.631 µM. The TGI [5] was > 100 µM, the GI50 [6] was 0.267 µM and the TGI [6] was > 100 µM. For the same compound, the GI50 [7] was 0.0741 µM, the TGI [7] was > 100 µM and the GI50 [8] was 0.422 µM. For the same compound, the TGI [8] was > 100 µM, the GI50 [9] was 1.57 µM and the TGI [9] was > 100 µM. The GI50 [10] was 0.372 µM and the TGI [10] was > 100 µM.

In the case of OCC(O)C(Cl)CCl (centres undefined), the TGI [1] is reported as > 100 µM, the TGI [2] is reported as > 100 µM and the TGI [3] is reported as > 100 µM. For the same compound, the TGI [4] was > 100 µM, the TGI [5] was > 100 µM and the TGI [6] was > 100 µM. For the same compound, the TGI [7] was > 100 µM, the TGI [8] was > 100 µM and the TGI [9] was > 100 µM. The TGI [10] was > 100 µM.

In the case of CC1(N)CCN(c2cccnc2NC(=O)c2nc(-c3ncccc3C(F)(F)F)cnc2N)CC1, the GI50 [1] is reported as 21.5 µM, the TGI [1] is reported as > 100 µM and the GI50 [2] is reported as 68.7 µM. The TGI [2] was > 100 µM, the GI50 [3] was 13.9 µM and the TGI [3] was 69.7 µM. For the same compound, the GI50 [4] was 19.6 µM, the TGI [4] was > 100 µM and the GI50 [5] was 3.67 µM. The TGI [5] was > 100 µM, the GI50 [6] was 3.3 µM and the TGI [6] was 35.5 µM. The GI50 [7] was 22.3 µM, the TGI [7] was > 100 µM and the GI50 [8] was 26.9 µM. The TGI [8] was > 100 µM, the GI50 [9] was 34.9 µM and the TGI [9] was > 100 µM. For the same compound, the GI50 [10] was 15.3 µM and the TGI [10] was > 100 µM.

For O=c1cc(-c2ccccc2F)[nH]c2ccc(N3CCCC3)cc12, the TGI [1] was 55.3 µM, the GI50 [2] was < 0.001 µM and the GI50 [3] was < 0.001 µM. For the same compound, the TGI [3] was > 100 µM, the GI50 [4] was < 0.001 µM and the GI50 [5] was < 0.001 µM. The GI50 [6] was < 0.001 µM, the GI50 [7] was < 0.001 µM and the TGI [7] was > 100 µM. The GI50 [8] was < 0.001 µM, the TGI [8] was > 100 µM and the GI50 [9] was > 100 µM. For the same compound, the GI50 [10] was < 0.001 µM and the TGI [10] was > 100 µM.

CCCCC[C@H]1C/C=C2/C(=O)C=C[C@@H]2C/C=C\CCCC(=O)O[C@@H](CCCCC)C/C=C2/C(=O)C=C[C@@H]2C/C=C\CCCC(=O)O1 showed a GI50 [1] of 0.475 µM, a TGI [1] of 2.67 µM and a GI50 [2] of 0.776 µM. It also gave a TGI [2] of 4.57 µM, a GI50 [3] of 0.0828 µM and a TGI [3] of 0.898 µM. The GI50 [4] was 0.218 µM, the TGI [4] was 0.822 µM and the GI50 [5] was 0.123 µM. For the same compound, the TGI [5] was 0.596 µM, the GI50 [6] was 0.0825 µM and the TGI [6] was 0.52 µM. For the same compound, the GI50 [7] was 0.0891 µM, the TGI [7] was 0.561 µM and the GI50 [8] was 0.082 µM. For the same compound, the TGI [8] was 1.42 µM, the GI50 [9] was 0.373 µM and the TGI [9] was 1.03 µM. For the same compound, the GI50 [10] was 0.41 µM and the TGI [10] was 0.811 µM.
